# Details: buffer; pH 7.4; 200.0 µM
row,Compound,solubility kinetic [µg/mL]
1,COc1cccc(CNC(=O)Cn2nc(C)c([N+](=O)[O-])c2C)c1,> 47.7
2,Cc1nccn1C[C@@H]1CCc2c(c3ccccc3n2C)C1=O,32.5
3,CCC(C)N1CCN(S(=O)(=O)Cc2ccccc2)CC1 (stereo not given),> 44.5
4,CC(C)c1ccc(Nc2c([N+](=O)[O-])c(=O)n(C)c3ccccc23)cc1,< 0.2
5,Cc1csc(NC(=O)CSc2nncc(=O)n2N)n1,> 44.8
6,O=C(NC1CCCCC1)c1ccc2c(c1)OCO2,> 37.1
7,COc1ccc(N(C)S(=O)(=O)c2cccc(C(=O)OCC(=O)N(C)c3ccccc3)c2)cc1,7.9
8,Cc1ccc(NC(=S)Nc2ccccn2)c(C)c1,3.1
9,CCOC(=O)Cc1cc(C)[nH]c1C(=O)OCC,34.7
10,COc1ccc(OCCSc2ncc(CO)n2C)cc1,> 44.2
11,Cc1ccc(NC(=O)CN(C)C(=O)/C=C/c2cccc(F)c2)cc1,2.2
12,O=C(O)c1cn(CCOc2ccccc2Cl)c2ccccc12,> 47.4
13,Cc1ccc(-c2cc(C(=O)N3CCOCC3)c3ccccc3n2)o1,> 48.4
14,Cc1[nH]c2ccccc2c1CN1CCN(c2ccccn2)CC1,44.4
15,O=C(Nc1ccccc1)C1CC(=O)n2c(nc3ccccc32)N1 (stereo not given),0.9
16,Cc1ccccc1C(=O)NC(=S)N(CCO)Cc1ccccc1,> 49.3
17,Nc1ccc(C(=O)O)cc1S(=O)(=O)O,> 32.6
18,COc1ccc(CSCC(=O)NCCC(C)C)cc1,> 42.2
19,CC1CC(=O)N(c2ccc(C(C)C)cc2)C(=O)C1,35
20,O=C(O)C1C2CCC(O2)C1C(=O)Nc1ccc(Br)cc1F (stereo not given),> 53.7
21,CC(=O)NCCc1nc2ccccc2n1CCOc1ccccc1,> 48.5
22,CCOc1ccccc1NC(=O)c1ccccc1N(C)S(=O)(=O)c1ccc(C)cc1,3.2

row,Compound,solubility kinetic [µg/mL]
1,COc1ccccc1N1CCN(S(=O)(=O)c2ccc(Cl)cc2)CC1,4
2,COC(=O)C1=C(C)NC(=O)NC1c1ccccc1Cl (stereo not given),18.5
3,Cn1cc(-c2ccccc2C(N)=O)c(=O)c2ccccc21,> 41.7
4,O=C(Nc1cccc(-c2cn3c(n2)SCC3)c1)c1ccc2c(c1)OCO2,18.1
5,COc1ccccc1Nc1ccc(C(=O)O)cc1[N+](=O)[O-],> 43.2
6,CCCCn1c(N)c(N(CC)C(=O)C2CCC2)c(=O)[nH]c1=O,> 46.3
7,COc1ccc(NC(=O)CCCC2CCCCC2)c(OC)c1,< 0.7
8,COc1ccc(C(=O)Nc2nc(-c3ccccc3)c(C(C)=O)s2)c(OC)c1,0.7
9,CC(=O)c1ccc(N2C(=O)CC(N3CCN(S(=O)(=O)c4ccc(C)c(C)c4)CC3)C2=O)cc1 (stereo not given),15
10,COCCNC(=O)COC(=O)c1cccnc1SC,> 42.6
11,O=C(O)CCSC1CC(=O)N(c2ccccc2)C1=O (stereo not given),> 41.9
12,CC1=C(C)CC(C(=O)NCCCN2CCCC2=O)C(C(=O)O)C1 (stereo not given),> 48.4
13,Cn1c(Nc2ccccc2)cc(=O)n(C)c1=O,> 34.7
14,Cc1c(/C=C(\CC(=O)O)c2nc3ccccc3s2)cc(C#N)n1C,44.6
15,Cc1onc(-c2c(Cl)cccc2Cl)c1C(=O)NN1CCCCCC1,> 55.2
16,N#C/C(=C\c1ccc(OCC(N)=O)cc1)C(=O)NC1CC1,> 42.8
17,COC(=O)c1c(C(=O)OC)c2ccccn2c1C(=O)c1ccccc1,6.2
18,COc1cccc(C(=O)NC2CC3CCC(C2)N3Cc2ccccc2)c1 (stereo not given),52.2
19,CCCc1nc(SC)[nH]c(=O)c1C,> 29.7
20,COCC(=O)NC1CCCCCC1,> 27.8
21,COc1ccccc1S(=O)(=O)Nc1ccc2nc(C)sc2c1,10.4
22,COc1cccc(N=Cc2c(O)c3ccccc3oc2=O)c1,15.5

row,Compound,solubility kinetic [µg/mL]
1,COc1cc2c(C#N)c(N3CCCCC3)nc(N)c2c(N)n1,39.8
2,O=C1Nc2ccccc2O/C1=C\c1c(F)cccc1Cl,0.7
3,CCN(Cc1ccccc1)C(=O)COc1ccccc1,> 40.4
4,COc1cc(S(=O)(=O)N2CCCN(C)CC2)ccc1NC(C)=O,> 51.2
5,Cc1c(-c2csc(N)n2)c2ccccc2n1C,30.4
6,COc1ccc(OC)c(C2NC(=O)CCC2[N+](=O)[O-])c1 (stereo not given),40.1
7,Cc1ccccc1C(=O)NC(=S)Nc1ncccn1,15.6
8,CC(C)N(Cc1ccccc1)C(=O)c1ccc2c(c1)OCO2,42.8
9,S=C(NCc1cccs1)NCC1CCCO1 (stereo not given),> 38.5
10,Cc1ccc(OCC(=O)NCCCNC(=O)c2cccnc2)cc1C,> 51.2
11,O=C(COC(=O)C1CCCO1)Nc1nc(-c2ccc(F)cc2)cs1 (stereo not given),> 52.6
12,CCC(C(=O)Nc1ccc([N+](=O)[O-])cn1)c1ccccc1 (stereo not given),39.3
13,CC(=O)Nc1ccc(NC(=O)c2cccc(S(=O)(=O)N3CCCCCC3)c2)cc1,5.3
14,COc1cc([N+](=O)[O-])ccc1NC(=O)COC(=O)C=C(C)C,3.6
15,N#CCCN(C(=O)COC(=O)c1ccc2c(c1)OCCO2)c1ccccc1,52
16,COc1ccc(CC(=O)NC(=S)Nc2cccc(C)c2)cc1,4
17,O=C(Nc1ccc(Cl)cc1Cl)C1CCCO1 (stereo not given),> 39
18,COCCNC(=O)Cn1nc(C)c([N+](=O)[O-])c1C,> 38.4
19,Brc1ccc(Nc2nc(-c3cccnc3)cs2)cc1,0.3
20,O=C1NC2(CCCCC2)C(=O)N1CCN1C(=O)c2ccccc2C1=O,40.1
21,CCCNC(=O)C(=O)Nc1cc2c3c(c1)CCC(=O)N3CCC2,> 47.3
22,COc1cccc(CNCCc2ccc3c(c2)OCO3)c1OC.O=C(O)C(=O)O,> 60.8

row,Compound,solubility kinetic [µg/mL]
1,O=C1CCC(=O)N1CC(=O)N(c1ccccc1)c1ccccc1,40.4
2,CC1(C)N2CC3([N+](=O)[O-])CN1CC([N+](=O)[O-])(C2)C3,34.5
3,N#Cc1ccc(Sc2ccccn2)c([N+](=O)[O-])c1,36.5
4,O=C1C(CSCc2ccccc2)NC(=S)N1c1ccccc1 (stereo not given),2.9
5,CN(C)C(=S)SCCn1c(N)nc(N(C)C)nc1=O,> 45.4
6,O=C(O)CC1(CC(=O)Nc2cc(F)ccc2Cl)CCCCC1,> 49.2
7,CN(Cc1cccs1)c1nc(-c2cccnc2)nc2ccccc12,3
8,O=C(CNC(=O)c1ccc(Cl)cc1Cl)NCC1CCCO1 (stereo not given),> 49.7
9,CN(C)CCCNc1nc(N)c([N+](=O)[O-])c(NC2CCCCC2)n1,> 50.6
10,CC(=O)O.NCC(c1ccco1)c1c[nH]c2ccccc12 (stereo not given),21.5
11,CCOC(=O)N1CCc2c(sc(NC(=O)CN3CCOCC3)c2C#N)C1,48.5
12,Cc1onc(-c2c(F)cccc2Cl)c1C(=O)N1CCCCC1,> 48.4
13,NC(=O)c1cc(S(=O)(=O)N2CCCCC2)cs1,> 41.2
14,O=c1[nH]c(Cc2ccccc2)nc2ccccc12,2.5
15,CC12CCC(C(=O)NCc3ccc(F)cc3)(OC1=O)C2(C)C (stereo not given),44.2
16,CN(C)CCNC(=O)C(c1ccccc1)c1ccccc1,37.9
17,O=C(c1cc(Cl)ccc1Cl)N1CCc2ccccc21,12.1
18,Cc1ccc(C(=O)Nc2cccc3ccccc23)cc1,0.8
19,CN1CCN(CCCN2c3ccccc3Sc3ccc(Cl)cc32)CC1.O=S(=O)(O)CCS(=O)(=O)O,73.3

# From PubChem BioAssay AID1996
